Measurements: patent US20250352506A1, “MRGPRB2/X2, AGONIST AND ANTAGONIST AND METHODS THEREOF” (THE UNIVERSITY OF HONG KONG, priority 2024, published 2025)
Entries after “also recorded” stand apart in the source; their conditions may differ.

Columns and labels:
[1] = molecular target: T1, Mrgprx2 (Homo sapiens, UniProt Q96LB1); test: PRESTO-Tango GPCR β-arrestin recruitment assay in Mrgprx2-transfected HTLA cells; assay type: cell-based
T1 construct: Tango fusion cassette; expressed in transfected cells; host or cells: HTLA cells
T1 sequence (Q96LB1 1-330): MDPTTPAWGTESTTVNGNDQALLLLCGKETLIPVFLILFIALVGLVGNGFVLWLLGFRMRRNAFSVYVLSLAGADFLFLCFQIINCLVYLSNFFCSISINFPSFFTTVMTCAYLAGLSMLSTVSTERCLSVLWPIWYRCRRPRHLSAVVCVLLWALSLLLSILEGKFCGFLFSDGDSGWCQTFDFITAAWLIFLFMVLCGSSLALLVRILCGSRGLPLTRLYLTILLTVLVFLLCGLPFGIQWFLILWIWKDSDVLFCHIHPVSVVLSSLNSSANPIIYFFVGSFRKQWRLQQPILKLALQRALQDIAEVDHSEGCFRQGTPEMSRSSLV
Protocol: HTLA cells were maintained in DMEM supplemented with 10% FBS, 2 μg/mL puromycin and 100 μg/mL hygromycin B in a humidified atmosphere at 37° C. in 5% CO2. One million cells were seeded in 100 mm cell culture dish (Day 1). Cells were transfected with 4 μg Tango-MRGPRX2 construct using Lipofectamine 2000 reagent (Day 2). On day 3, cells were harvested and 20,000 cells per well were plated in 80 μL medium into poly-L-lysine coated and rinsed 96-well white cell culture plates (PerkinElmer). On day 4, GE1111 (final concentration […]) is added 1 hr prior to the agonists or antagonist in dose response manner (Compound 48/80, P17, P17*A4, P17*A7 and GE1111). On day 5, medium and drugs were removed from the wells slowly (aspiration) and […] luciferase substrate solution (500 mM DTT, 10 mM CoA, 100 mM ATP, 80 mg/mL luciferin and triton lysis buffer) were added to each well. After incubation for 10 min at room temperature, luminescence was counted in PerkinElmer Victor X4. RLU (relative luminescence units) results were exported into Excel sheets and GraphPad Prism 10 was used for analysis of data. To measure constitutive basal activity, no ligand was added on day 4.

[2] = tested on: pERK 1/2 MAPK pathway and STIM1 in LAD2 mast cells; test: Western blot of LAD2 mast cells treated with Mrgprx2 ligands (pERK1/2, STIM1); assay type: cell-based; settings: GE1111 25 μM added 30 min prior to agonists
Protocol: LAD2 cells were treated with agonists (1 μM Compound 48/80, P17, P17*A4, P17*A7 and 25 μM GE1111) for 15 min. For antagonist study, GE1111 (25 μM) were added 30 min prior to adding the agonists ([…] Compound 48/80, P17, P17*A4 and P17*A7). Cells were harvested and RIPA buffer containing cocktail mix of phosphatase and protease inhibitors was used to extract protein. Upon Bradford assay, harvested proteins were denatured with Lamelli buffer at 95° C. for 5 min. Protein samples were loaded in SDS-PAGE and transferred to nitrocellulose membrane. Membranes were blocked with 5% BSA for 1 hr and incubated at 4° C. overnight with primary antibodies (1:1000) in BSA (p44/42 MAPK (Erk1/2) (137F5) Rabbit mAb #4695, cell signalling, USA; Phospho-p44/42 MAPK (Erk1/2) (Thr202/Tyr204) (D13.14.4E) XP® Rabbit mAb #4370, Cell Signalling, USA; GAPDH (14C10) Rabbit mAb #2118, Cell signalling, USA; STIM1 Antibody #4916, Cell Signalling, USA) followed by (1:2000) HRP linked anti-rabbit secondary antibody (Anti-rabbit IgG, HRP-linked Antibody #7074) in 1 hr at room temperature. ECL was added and blots were visualized with Bio Rad CHEMIDOC™ MP imaging system.

[3] = tested on: 4% DSS-induced colitis in C57BL/6N mice; test: Survival study in 4% DSS-induced colitis; assay type: in vivo, mouse; settings: WT mice, i.p. every alternative day
Source text: (§1) C57BL/6N and Mrgprb2−/− adult mice (6-8 weeks old) were obtained from CMMR and housed in cages for acclimatation for a week. C57BL/6N and Mrgprb2−/− mice were divided into four groups (N=5-6) (2% DSS in drinking water and water control). Controls were fed with regular water and the treatment groups were exposed to 2% DSS for 5 days (Day 0 to Day 5) and regular water till Day 12. DSS-Colitis Grade (36,000-50,000 MW) (MP Biomedicals, Santa Ana, CA) was used in this study. During experiments, these mice were given anaesthesia to harvest blood and organs for other biochemical and histology analysis. For the survival study with Mrgprb2/x2 agonists, C57BL/6N mice were grouped into […] (N=10) and fed with 4% DSS for 5 days (Day 0 to 5) and replaced with regular drinking water for the rest of the experiment. Meanwhile, Mrgprb2/x2 ligands were given to the animals every alternative day via i.p. injection 100 μL with 10 μg/kg mice. For the treatment study with Mrgprb2/x2 ligands, C57BL/6N mice were divided into 7 groups (N=8 per group). Six groups were receiving 2.5% DSS dissolved in drinking water for 5 days (Day 0 to Day 5) and regular water till Day 12 and the control group was receiving water from Day 0 to Day 12. These 6 groups exposed to 2.5% DSS were treated with Mrgprb2/x2 ligands or saline for every alternative day till Day 12. […]

[4] = tested on: 2.5% DSS-induced colitis in C57BL/6N mice; test: Treatment study in 2.5% DSS-induced colitis, clinical parameters (DAI, colon, H&E); assay type: in vivo, mouse; settings: WT mice, 2.5% DSS Day 0 to 5, ligands every alternative day to Day 12; P17 and analogues 150 μg/kg, CST-14 15 μg/kg, GE1111 300 μg/kg
Source text: as §1, with “mice.” for “mice. For the treatment study with Mrgprb2/x2 ligands, C57BL/6N mice were divided into 7 groups (N=8 per group). Six groups were receiving 2.5% DSS dissolved in drinking water for 5 days (Day 0 to Day 5) and regular water till Day 12 and the control group was receiving water from Day 0 to Day 12. These 6 groups exposed to 2.5% DSS were treated with Mrgprb2/x2 ligands or saline for every alternative day till Day 12.”
All animals were examined daily and the disease activity index (DAI) score was assessed as previously described by assessing stool consistency, presence of blood in stool and body weight change as summarised in Table 1. Percentage of body weight was calculated relative to the initial body weight at Day 0 [(Weight on a Day−Initial weight at Day 0/Initial weight at Day 0)×100].

[5] = tested on: Mrgpra1 and Mrgprb2 expression in colon; test: qRT-PCR of mouse orthologs of Mrgprx2 in colon; assay type: in vivo; settings: WT mice, 2.5% DSS-induced colitis
Protocol: To assess the gene expression profile in colon, distal colons were used to isolate total RNA using Trizol. Total RNA was precipitated for 30 min in […] with isopropanol and glycogen. The precipitated RNA was then washed with 75% ethanol and resuspended in RNase-free water for first strand cDNA synthesis following the protocol from HiScript® II Q RT SuperMix (Vazyme biotech co., ltd, China). cDNA harvested were quantified by quantitative PCR (7300 Real-Time PCR System, Applied Biosystems, Forster City, CA). The expression of genes was examined using ChamQ™ SYBR Color qPCR Master Mix as specified by the manufacturer protocol. All primer sequences are shown in Supplementary Table S1. […] method was employed for data analysis with the internal control, glyceraldehyde-3-phosphate dehydrogenase (gapdh).

[6] = tested on: cytokine and chemokine releases in the blood; test: Cytokine array analysis of blood plasma; assay type: in vivo, mouse; settings: mice exposed to 2.5% DSS, 40-target array
Protocol: The cytokine membranes were blocked with blocking buffer in room temperature for 1 hr. The blocking buffer was removed from the membranes and […] of plasma obtained from the treatment groups (WT+Water, WT+2% DSS, Mrgprb2−/−+Water and Mrgprb2−/−+2% DSS; Water+Saline, 2.5% DSS+Saline, 2.5% DSS+P17*A7 and 2.5% DSS+GE1111) diluted in blocking buffer (total volume 1 mL) were subjected to membrane containing array of antibodies anti-cytokines. The membranes were first incubated at 4 °C for 24 hr in the blocking buffer, following five washes with washing buffers (I and II) and then incubated with 1× biotin-conjugated anti-cytokines overnight at 4 °C. Membranes were washed again with washing buffers (I and II) 5 five times and incubated with 1×HRP-conjugated streptavidin for 2 hr at room temperature. Membranes were washed again, and 1 mL of detection buffer C and D were mixed and added to each membrane in dark for 2 min before imaging. Finally, array images were measured with ChemiDoc MP (Bio-Rad Laboratories, Hercules, CA). The detailed protocol can be referred to the instructions of a Cytokine Antibody Array Kit (ab133999—40 targets, Abcam).

[7] = tested on: M-CSF, BLC, G-CSF and sTNF RI in blood plasma; test: ELISA of cytokines in blood plasma; assay type: in vivo, mouse; settings: mice exposed to 2.5% DSS
Protocol: Concentrations of cytokines in blood plasma of the treatment groups (WT+Water, WT+2% DSS, Mrgprb2−/−+Water, Mrgprb2−/−+2% DSS, Water+Saline, 2.5% DSS+Saline, 2.5% DSS+P17, 2.5% DSS+P17*A4, 2.5% DSS+P17*A7, 2.5% DSS+CST-14 and 2.5% DSS+GE1111) were determined using ELISA kits (M-CSF-ab199084, Abcam; LIX—ab264611, Abcam; sTNF RI—ab202408, Abcam; G-CSF—ab197743, Abcam; BLC-EMCXCL13, Thermofisher) according to the manufacturer's protocol. Optical densities of the samples and standards were measured using PerkinElmer Victor X4. Cytokine concentrations were determined by comparing the optical density from the standard curve of each cytokine standards.

[8] = tested on: DSS-induced colitis in mice models; settings: recent studies [41]-[44]; cited from earlier work

Compound	effect on agonist-induced β-arrestin recruitment ([1]; GE1111 (final concentration 10 PM) added 1 hr prior to the agonists)	GE1111 dose response on Mrgprx2 (no agonist) ([1]; Mrgprx2-transfected HTLA cells, GE1111 alone)	effect on agonist-induced pERK1/2 / STIM1 pathway [2]	survival of mice [3]	severity of DSS-induced colitis [4]	expression of Mrgpra1 and Mrgprb2 in colon [5]	cytokine and chemokine levels in the blood plasma (array) [6]	M-CSF, BLC and G-CSF levels in blood plasma [7]	DSS-induced colitis symptoms [8]
COC(=O)c1cc2cc(NC(N)=O)ccc2cc1-c1cc2c3c(c(O)ccc3c1)C(C)C(C=O)=C2 (stereo not shown) [GE1111]	antagonized the agonist activity	behaved as an inverse agonist	antagonized this pathway	increased the survival rate; also recorded: mimicked the effect of the agonist on mice survival	reduced the severity of DSS-induced colitis	restored their expression to the levels of healthy mice	significant modifications in most of the cytokine and chemokine levels	significant reduction in these cytokine levels	
O=c1c(O)c(-c2ccc(O)c(O)c2)oc2cc(O)cc(O)c12 [quercetin]									ameliorate DSS-induced colitis symptoms
cortistatin 14 [CST-14, reference compound]				increased the survival rate	reduced the severity of DSS-induced colitis				ameliorate DSS-induced colitis symptoms
protegrin									ameliorate DSS-induced colitis symptoms
